The values that follow come from patent US11077110B2, “Compositions and methods for treating and preventing metabolic disorders” (TUFTS MEDICAL CENTER, priority 2016, dated 2021).

One assay relates to WT-ADSCs cells. The assay can be described thus: anti-proliferation efficacy and cell cycle of CDK4/6 inhibitors against primary adipose derived stem cells. It counts as cell-based, mouse. As to conditions: WT-ADSCs treated 6 days, PD 0.1 μM or LEE 10 μM, vs DMSO or vehicle; for frequency of proliferating cells (S-G2-M) / frequency of quiescence cells (G1): flow cytometric cell cycle profile; for total cell numbers: initial plating 5×10^5 cells. On the procedure: (a, d) representative flow cytometric cell cycle profiles of WT-ADSCs cells treated with either PD (0.1 μM) or LEE (10 μM) for 6 days. (b, e) histograms summarizing the cell cycle distribution of the cells in A and D. Data shown are mean±s.d. (n=6); *P<0.05 vs DMSO or V, t-test. (c, f) Histograms summarizing the total cell numbers in WT-ADSCs cells treated with DMSO or PD (0.1 μM) for 6 days (c), or WT-ADSCs cells treated with vehicle (0.5% methycellulose) or LEE for 6 days (F). Data shown are mean±s.d. (n=6); *P<0.05 vs DMSO or V, t-test. The initial plating cells were 5×10^5.
To accomplish this, the anti-proliferation efficacy of CDK4/6 inhibitors against primary adipose derived stem cells (ADSCs) from the stromal vascular fraction (SVF) of WT adipose tissue (WT-ADSCs) we assessed. WT-ADSCs were treated with two known commercial available CDK4/6 inhibitors PD0332991 (PD) and LEE011 (LEE), two clinically relevant small molecule inhibitors of CDK4 and CDK6 kinases (Rader, J., et al. Clin Cancer Res 19, 6173-6182, 2013); Fry, D. W., et al. Mol Cancer Ther 3, 1427-1438, 2004; Pikman, Y., et al. Clin Cancer Res 23, 1012-1024, 2017) for 6 days with commonly used relevant effective doses (Fry, D. W., et al. Mol Cancer Ther 3, 1427-1438, 2004; Pikman, Y., et al. Clin Cancer Res 23, 1012-1024, 2017).
Background: In flow cytometry, cells or beads pass a laser one at a time.

Another assay relates to WT-ADSCs. The assay can be described thus: differentiation towards brown-like adipocytes in the presence of BAT inducers. It counts as cell-based, mouse. As to conditions: WT-ADSCs with BAT inducers; LEE011 10 μM, PD 0.1 μM; vs vehicle. As for the experimental part:
(a, d) Representative images of Oil Red O staining of differentiated ADSCs from WT and K43M mice (a, 10×) or WT-ADSCs treated with CDK4/6 inhibitor LEE011 (10 μM) and PD (0.1 μM) (a, 10×) in the presence of BAT inducers. (b, e) Representative images of Oil Red O staining of differentiated ADSCs from WT and K43M mice (b, 40×) or WT-ADSCs treated with CDK4/6 inhibitor LEE011 10 μM and PD 0.1 μM (e, 40×) in the presence of BAT inducers. (c, f) Representative images of bright field images of differentiated ADSCs from iWAT of WT and K43M mice or WT-ADSCs treated with CDK4/6 inhibitor LEE011 (10 μM) and PD (0.1 μM) (f, 40×) in the presence of BAT inducers.
(a) Relative mRNA levels of BAT markers Ucp-1, Pgc-1α and Cidea in differentiated ADSCs in the presence of BAT inducers. […] (b) lysates from cells were analyzed by immunoblotting for expression of CDK6, UCP-1, PGC-1α, and RUNX1. […]
Cellular differentiation entails the coordination of cell cycle arrest and tissue-specific gene expression. […] Accumulation of lipid-containing cells was detected by Oil red O staining as described (Hansen, J. B., et al. J Biol Chem 274, 2386-2393, 1999) (FIG. 11 a-b) and the characteristic feature of multilocular beige cells were also visualized under light microscopy (FIG. 11c). […]

With `CN(C)C(=O)c1cc2cnc(Nc3ccc(N4CCNCC4)cn3)nc2n1C1CCCC1` [LEE011, Ribociclib], in the assay on WT-ADSCs cells, the “frequency of proliferating cells (S-G2-M)” value is given as “dramatic reduction”, the “frequency of quiescence cells (G1)” value was “increased frequency” and the total cell numbers result is on record as “successfully reduced”. Also, the brown-like adipocyte differentiation result with WT-ADSCs is “can induce brown-like adipocytes in vitro”.
The matching figures for `CC(=O)c1c(C)c2cnc(Nc3ccc(N4CCNCC4)cn3)nc2n(C2CCCC2)c1=O` [PD0332991, palbociclib]: “dramatic reduction”, “increased frequency”, “successfully reduced” and “can induce brown-like adipocytes in vitro”.
